Assay [1] concerns NA with H275Y mutation, strain A/WSN/1933 (H1N1). The note with it: cited from earlier work.
In assay [2] the target is H275Y NA2009. Type of assay: biochemical, A/California/07/2009 (H1N1) influenza virus.
Assay [3] has as its target I223V NA2009. It counts as biochemical, A/California/07/2009 (H1N1) influenza virus.
In assay [4] the test system is S247N NA2009. Type of assay: biochemical, A/California/07/2009 (H1N1) influenza virus.
The next assay relates to H275Y/I223V NA2009. Type of assay: biochemical, A/California/07/2009 (H1N1) influenza virus.
For the next assay, the system named is H275Y/S247N NA2009. It counts as biochemical, A/California/07/2009 (H1N1) influenza virus.
The subject of assay [5] is I223V NA2009. Type of assay: binding, A/California/07/2009 (H1N1) influenza virus.
The subject of assay [6] is S247N NA2009. It counts as binding, A/California/07/2009 (H1N1) influenza virus.
Assay [7] relates to H275Y NA2009. It counts as binding, A/California/07/2009 (H1N1) influenza virus.
Assay [8] deals with H275Y/I223V 2009 pandemic H1N1 virus. The conditions noted are these: cited from earlier work.
The test system of assay [9] is H275Y/S247N 2009 pandemic H1N1 virus. The note with it: cited from earlier work.

Broadly, the Ki is the dissociation constant of the complex between target and ligand, obtained from inhibition or displacement. A higher Ki goes with a looser hold on the target. In general, Kd refers to the equilibrium constant for the complex coming apart. Read a high Kd as lower affinity.

For `CCC(CC)[C@H](NC(C)=O)[C@@H]1[C@H](O)[C@@H](C(=O)O)C[C@H]1N=C(N)N` [peramivir], the “reduction in susceptibility conferred by His to Tyr mutation at position 275” value in assay [1] is on record as 260 fold.

On H275Y NA2009 [2], `CCC(CC)O[C@@H]1C=C(C(=O)O)C[C@H](N)[C@H]1NC(C)=O` [oseltamivir carboxylate] gave a Ki of 27 µM. At I223V NA2009 [3], the Ki is 0.7 ± 0.1 µM. Further, in the assay on S247N NA2009 [4], the “Fold Ki” value came out at 19 fold and the Ki was determined as 0.45 ± 0.04 µM. In the assay with H275Y/I223V NA2009, the “Fold Ki” value amounted to 3900 fold, the Ki came out at 94 µM and the “increase in Ki compared to H275Y NA2009” value is on record as “more than three-fold”. Further, in the assay on H275Y/S247N NA2009, the “Fold Ki” value stood at 9000 fold, the Ki is 220 µM, the “increase in Ki compared to the H275Y single mutant” value is 8 fold and the “increase in Ki compared to the S247N single mutant” value is recorded as 500 fold. Further, in the assay with I223V NA2009 [5], the “less favorable enthalpy change compared to wt” value was found to be 1.4 kcal/mol and the “more favorable entropic contribution compared to wt” value was 0.6 kcal/mol. Also, on I223V NA2009 [5] (pH 6.15), binding was characterised by a dissociation constant (Kd) of 0.52 ± 0.03 µM, the ΔG is -8.6 ± 0.1 kcal/mol, the ΔH was -9.4 ± 0.1 kcal/mol and the “−T·ΔS” value is 0.9 ± 0.2 kcal/mol. Further, in the assay on S247N NA2009 [6], the “entropic contribution of binding compared to wt” value is “almost unaffected” and the “less favorable enthalpy change compared to wt” value turned out to be 0.4 kcal/mol. At S247N NA2009 [6] (pH 6.15), the affinity, expressed as Kd, was 0.41 ± 0.02 µM; the ΔG is -8.7 ± 0.03 kcal/mol; the ΔH was -10.4 ± 0.1 kcal/mol; the “−T·ΔS” value stood at 1.7 ± 0.1 kcal/mol. Further, in the assay with H275Y NA2009 [7], the “enthalpy change less favorable than the wt value” amounted to 8.7 kcal/mol and the “more favorable entropic contribution (referenced to the wt value)” value is 6 kcal/mol. For the same compound, on H275Y NA2009 [7] (pH 6.15), binding was put at a Kd of 13.2 µM, the ΔG is -6.7 ± 0.03 kcal/mol, the ΔH is -2.1 ± 0.04 kcal/mol and the “−T·ΔS” value is -4.6 ± 0.1 kcal/mol. Further, in assay [1], the “reduction in susceptibility conferred by His to Tyr mutation at position 275” value is 750 fold. In addition, in assay [8], the “enhanced oseltamivir-resistant phenotype compared to the recombinant wt virus” value is reported as 1733 fold. Moreover, the “enhanced oseltamivir-resistant phenotype compared to the recombinant wt virus” value in assay [9] is given as 7000 fold.

(Values after article PMC6071225 (Viruses, 2018).)
